Assay results reported in patent US20100204340A1 (priority 2009, published 2010).
In brackets after ≈: the same amount, converted by molar mass.

Key:
[1] = tested on: Bacterial reverse mutation; experiment: Bacterial reverse mutation assay (AMES); format: cell-based; settings: presence and absence of metabolic activation, upto 415 μg/ml
Method: 3-hydroxypterostilbene is non mutagenic in the Bacterial reverse mutation assay (AMES), both in the presence and absence of metabolic activation, upto a workable concentration of 415 μg/ml.

[2] = molecular target: tyrosinase; experiment: Anti tyrosinase activity; format: biochemical
[3] = molecular target: T1, SIRT1 polypeptide (Homo sapiens, UniProt Q96EB6); experiment: SIRT 1 Direct fluorescent Screening Assay kit (Cayman); format: biochemical; settings: read-out: Percentage SIRT 1 modulation; for activation at 1 µg/mL: 1 μg/ml; for activation at 10 µg/mL: 10 μg/ml
T1 construct: purchased Cayman Chemical Company 10010401
T1 sequence (Q96EB6 1-747): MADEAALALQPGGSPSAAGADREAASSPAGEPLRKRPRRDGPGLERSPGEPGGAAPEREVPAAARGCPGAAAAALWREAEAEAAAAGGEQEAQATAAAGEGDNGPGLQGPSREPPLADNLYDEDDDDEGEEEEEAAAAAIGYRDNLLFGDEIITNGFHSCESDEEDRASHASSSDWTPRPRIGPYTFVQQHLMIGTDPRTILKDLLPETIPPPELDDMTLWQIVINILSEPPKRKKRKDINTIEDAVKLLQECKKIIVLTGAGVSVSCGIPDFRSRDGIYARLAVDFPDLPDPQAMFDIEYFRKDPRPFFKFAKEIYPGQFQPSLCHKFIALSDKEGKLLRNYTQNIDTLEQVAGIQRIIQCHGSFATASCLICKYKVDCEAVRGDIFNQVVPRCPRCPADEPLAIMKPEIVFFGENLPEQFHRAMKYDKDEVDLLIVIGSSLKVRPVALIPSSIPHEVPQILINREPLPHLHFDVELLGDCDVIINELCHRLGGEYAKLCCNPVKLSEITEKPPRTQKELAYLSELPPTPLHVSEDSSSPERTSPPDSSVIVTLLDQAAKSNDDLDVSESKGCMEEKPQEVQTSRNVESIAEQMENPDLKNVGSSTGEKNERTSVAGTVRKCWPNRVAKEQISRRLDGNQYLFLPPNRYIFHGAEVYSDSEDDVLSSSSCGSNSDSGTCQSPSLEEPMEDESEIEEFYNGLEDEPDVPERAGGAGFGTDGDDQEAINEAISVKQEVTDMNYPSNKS
Method: SIRT-1 activation/inhibition was measured using the SIRT 1 Direct fluorescent Screening Assay kit (Catalog No. 10010401) and instructions provided therein of Cayman Chemical Company, 1180 East Ellsworth Road, Ann Arbor, Mich. 48108 USA. (http://www.caymanchem.com/pdfs/10010401.pdf)

[4] = tested on: Sprague Dawley rats; experiment: in vivo; settings: rat, po
Method: (§1) Repeated dose 90 day Oral toxicity study for 3HPT in Sprague Dawley rats: The study was conducted to evaluate the possible health hazards likely to arise from repeated exposure to 3HPT over a relatively limited period of time. The study was conducted in six groups consisting of 120 rats with 60 males and 60 females. Group-I, I (R), II, III, IV and IV (R) served as Control, Control Recovery, Low dose (20 mg/kg Bwt), Mid dose (80 mg/kg Bwt), High dose (200 mg/kg Bwt) and High dose Recovery (200 mg/kg Bwt) groups respectively. The test item or vehicle was administered through oral route by gavage to animals daily for 90 days. The animals of Control group and Control recovery group were administered with Corn oil. The vehicle and test item administration to Control Recovery and High dose Recovery group animals respectively was stopped after 90 days of administration and observed for another 28 days to evaluate the effects during recovery period. […] Body weights and food consumptions were recorded at weekly intervals. On completion of 90 days for treatment groups or 118 days for recovery groups respectively, the blood samples were collected from all the animals and subjected to haematological and clinical chemistry evaluation. At termination the animals were humanely sacrificed and subjected to necropsy examination. […]

[5] = in vivo; settings: both sexes, Sprague Dawley, rat, po
Method: as §1

[6] = tested on: 3T3-L1 mouse adipocyte cells; experiment: Adipogenesis inhibitory assay (Oil Red-O staining); format: cell-based; settings: for IC50: Mus musculus, 3T3-L1, Oil Red-O, OD 492 nm, read-out: IC50, inhibition of adipogenesis; for Adipogenesis inhibitory potential relative to Resveratrol: times more effective / superior than resveratrol
Method: A common assay to measure adipocyte differentiation in cell culture is with the dye Oil Red-O, which is a lipid-soluble red dye. Since terminal differentiation of adipocytes is accompanied by the accumulation of great amounts of lipids in large cytoplasmic vesicles, a strong, bright, staining of the cytoplasm with this dye is a reliable indicator of adipocyte differentiation.
3T3-L1 mouse adipocyte cells are seeded at a density of 5000 cell/200 μl of adipocyte induction medium in a 96 well plate. After 48 hrs varying concentrations of the sample are added. After 72 hrs, the medium is changed to adipocyte progression medium along with the sample. The medium is similarly changed after another 48 hours. The plates are washed gently after 48 hrs with 100 μl of PBS. 100 μl of 10% formalin is used to fix the cells for 30 min keeping at RT. The cells are then washed twice with 60% isopropanol gently. 100 μl of clear Oil red O stain is added to the wells & kept for staining for 1 hr. The cells are then washed with 70% Ethanol twice, once with PBS and air dried. Then 100 μl of 4% triton×100 in isopropanol is added to all the wells covered tightly & kept it in a shaker for 20 min at […]. The OD reading is taken at 492 nm in microplate reader.
The results are expressed as IC50 values using Graphpad prism software. The percentage of inhibition of adipogenesis is calculated as follows,
Where C-absorbance due to adipogenesis in untreated cells T-absorbance due to adipogenesis in sample treated cells
Note: IC50 is the concentration required for 50% inhibition of adipogenesis. Lower IC50 indicates better efficacy.

[7] = Pharmacokinetics in serum and urine upon oral administration; format: in vivo, rats; settings: rat, in vivo, po, 100 mg/kg
Method: The compound in its free and conjugated form is freely absorbed into systemic circulation with the glucoronide detected up to 72 hours.
(FIG. 4). The compound in its free and conjugated form appears in systemic circulation within 15 minutes of administration.

[8] = Oxygen Radical Absorbance Capacity (ORAC)
[9] = DPPH scavenging assay
[10] = molecular target: Elastase; experiment: Anti Elastase assay; format: biochemical
[11] = molecular target: collagenase; experiment: Anti collagenase assay; format: biochemical
[12] = molecular target: α-glucosidase; experiment: Anti α-glucosidase activity; format: biochemical
[13] = tested on: B16F1 mouse melanoma cell line; experiment: Melanin inhibitory assay; format: cell-based; settings: B16-F1

In the case of `COc1cc(/C=C/c2ccc(O)c(O)c2)cc(OC)c1` [3-hydroxypterostilbene], the Mutagenicity [1] is reported as “non mutagenic”, the “IC50, anti tyrosinase activity” value [2] is reported as “IC50 is 2 μg/ml” and the activation at 1 µg/mL [3] is reported as 224%. The activation at 10 µg/mL [3] was 669%, the “Necropsy and histopathology examination of tissues and organs” value [4] was “did not reveal any pathological changes” and the NOAEL at 90 days [5] was 200 mg/kg. For the same compound, the IC50 [6] was 0.00483 µM, the “Adipogenesis inhibitory potential relative to Resveratrol” value [6] was “about 5000 times” and the “Adipogenesis inhibitory potential relative to Resveratrol” value ([6]; listed as 3,5-dimethoxy-3,4′-dihydroxystilbene) was 5000 times. The “Oral bioavailability (free form and glucoronide)” value [7] was “orally bioavailable”, the “Time to appearance in systemic circulation (free and conjugated form)” value [7] was at most 15 min and the Urinary excretion form [7] was “excreted predominantly as glucoronides in the urine”. The “Oxygen Radical Absorbance Capacity (ORAC)” value [8] was 13334 ± 323 μmol TE/100 g, the “SC50, DPPH scavenging” value [9] was “SC50 is 1.34 μg/ml” and the “IC50, anti Elastase” value [10] was “IC50 is 82 μg/ml”. The “IC50, anti collagenase” value [11] was “IC50 is 90 μg/ml”, the “IC50, anti α-glucosidase” value [12] was “IC50 is 203.7 μg/ml” and the IC50 [13] was 0.7 µg/mL (≈ 2.57 µM).

With `Oc1ccc(/C=C/c2cc(O)cc(O)c2)cc1` [Resveratrol, 3,4′,5-trihydroxy-trans-stilbene] the activation at 1 µg/mL [3] was 138%, the activation at 10 µg/mL [3] was 291% and the IC50 [6] was 25 µM.
